US7794994B2 (Kemeta, LLC, priority 2001, dated 2010)
Where two headings read alike, the source gives them in different places.

Columns and labels:
[1] = test system: secondary alcohol dehydrogenase from R. rhodochrous PNKb1; details: R. rhodochrous PNKb1 enzyme; cited from earlier work
[2] = test system: S-ADH purified from M vaccae strain JOB-5; details: M vaccae enzyme; alcohols oxidized, acetone reduced; cited from earlier work
[3] = test system: S-ADH from M. vaccae JOB-5; test: S-ADH spectrophotometric assay, propane-grown M. vaccae JOB-5; format: biochemical, Mycobacterium vaccae strain JOB-5; details: for Relative S-ADH Activity (%) JOB 5, alcohol oxidation: alcohol oxidation rates, pH 7.6, 2.5 mM substrate, 0.2 mM NAD+, 2-propanol = 100, NA = no activity detected; for Relative S-ADH Activity (%) JOB 5, ketone reduction: ketone reduction rates, pH 6.2, 2.5 mM substrate, 0.2 mM NADH, acetone = 100
Experimental: Assays were performed in 2 mL quartz cuvettes and contained NAD(H) (0.2 mM), potassium phosphate buffer (25 mM), and a source of enzyme (cell-free extracts, column fractions, or purified enzyme) in a total reaction volume of 1 mL at pH 6.2 ([…]) at 30° C. Assays were pre-incubated for 1.5 min. at 30° C. with all assay components except substrate. Assays were initiated by addition of substrate (2.5 mM) and monitored over time by measuring the change in absorbance at 340 nm (∈340 of 6.22 mM^−1·cm^−1 for NADH).

[4] = biological target: T1, acetone carboxylase from X. autotrophicus strain Py2 (Xanthobacter versatilis, UniProt Q8RM03+Q8RM04); details: cited from earlier work
T1 sequence (Q8RM03 1-776): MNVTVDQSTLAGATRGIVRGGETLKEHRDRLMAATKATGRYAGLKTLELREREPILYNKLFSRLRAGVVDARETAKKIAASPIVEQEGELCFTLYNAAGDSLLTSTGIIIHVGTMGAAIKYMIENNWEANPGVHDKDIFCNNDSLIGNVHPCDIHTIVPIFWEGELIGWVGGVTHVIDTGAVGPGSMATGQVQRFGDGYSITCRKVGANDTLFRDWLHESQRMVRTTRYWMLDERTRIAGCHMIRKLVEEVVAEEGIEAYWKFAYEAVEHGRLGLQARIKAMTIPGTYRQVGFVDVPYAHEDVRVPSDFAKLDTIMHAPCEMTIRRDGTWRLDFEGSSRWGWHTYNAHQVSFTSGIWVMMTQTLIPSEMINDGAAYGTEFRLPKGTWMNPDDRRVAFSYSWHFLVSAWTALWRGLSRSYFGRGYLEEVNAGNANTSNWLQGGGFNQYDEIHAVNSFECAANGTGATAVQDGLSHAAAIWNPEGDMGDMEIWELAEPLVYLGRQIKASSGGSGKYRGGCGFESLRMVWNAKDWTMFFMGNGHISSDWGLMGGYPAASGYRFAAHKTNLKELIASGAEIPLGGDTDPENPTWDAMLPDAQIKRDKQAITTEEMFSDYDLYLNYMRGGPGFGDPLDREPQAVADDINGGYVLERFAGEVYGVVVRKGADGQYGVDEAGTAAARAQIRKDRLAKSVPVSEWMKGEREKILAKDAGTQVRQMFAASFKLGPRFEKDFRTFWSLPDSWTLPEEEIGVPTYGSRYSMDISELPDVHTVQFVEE
T1 sequence (Q8RM04 1-717): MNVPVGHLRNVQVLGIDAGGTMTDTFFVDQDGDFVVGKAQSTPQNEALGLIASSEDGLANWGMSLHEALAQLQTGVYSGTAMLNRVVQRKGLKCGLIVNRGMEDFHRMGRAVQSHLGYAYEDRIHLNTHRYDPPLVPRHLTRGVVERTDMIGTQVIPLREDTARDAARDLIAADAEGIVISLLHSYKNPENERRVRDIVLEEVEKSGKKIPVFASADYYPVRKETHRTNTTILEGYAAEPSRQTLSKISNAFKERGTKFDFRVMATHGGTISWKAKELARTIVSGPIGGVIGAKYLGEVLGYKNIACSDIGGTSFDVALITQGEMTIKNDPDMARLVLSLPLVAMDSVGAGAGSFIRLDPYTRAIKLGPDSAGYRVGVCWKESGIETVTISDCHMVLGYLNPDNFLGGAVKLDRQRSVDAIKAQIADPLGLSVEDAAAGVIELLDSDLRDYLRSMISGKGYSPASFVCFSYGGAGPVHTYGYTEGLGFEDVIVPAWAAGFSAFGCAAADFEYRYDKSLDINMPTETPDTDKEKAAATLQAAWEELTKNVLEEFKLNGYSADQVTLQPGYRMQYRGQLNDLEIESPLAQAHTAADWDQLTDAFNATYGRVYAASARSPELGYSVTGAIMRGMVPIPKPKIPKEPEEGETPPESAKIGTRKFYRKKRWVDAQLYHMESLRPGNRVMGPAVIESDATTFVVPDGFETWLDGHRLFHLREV
T1 sequence (Q8RM02 2-168 partner limits assumed): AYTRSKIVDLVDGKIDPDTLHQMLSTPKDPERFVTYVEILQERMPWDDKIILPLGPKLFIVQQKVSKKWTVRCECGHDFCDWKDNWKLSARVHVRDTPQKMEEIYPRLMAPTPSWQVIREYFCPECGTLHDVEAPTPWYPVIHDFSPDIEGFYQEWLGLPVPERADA

[5] = as reported by NIST; cited from earlier work
[6] = test system: acetone carboxylase from Rhodobacter capsulatus strain B10; details: cited from earlier work
[7] = test system: S-ADH from Pseudomonas species 6307; details: cited from earlier work

Compound | Km [1] | Km [2] | Relative S-ADH Activity (%) JOB 5, alcohol oxidation [3] | Relative S-ADH Activity (%) JOB 5, ketone reduction [3] | also measured
CCCO [1-Propanol] | 18000 µM | 8100 µM | 9% | – | –
CCC(C)O (stereo not drawn) [2-Butanol] | – | – | 130% | – | –
CCC(C)=O [2-Butanone] | – | – | – | 213% | carboxylation rate relative to that of acetone [4]: 40%
CC(C)O [2-Propanol] | 12000 µM | 50 µM | 100% | – | –
CC(C)=O [Acetone, acetone] | – | 300 µM | – | 100% | Henry's Law constant [5]: 24 M·atm^−1; Vmax [4]: 0.206 μmol acetone consumed·min^−1·mg^−1 protein; Km ([4]; read-out: apparent Km): 7.8 µM; Km [6]: 8.2 µM; Vmax [6]: 0.291 μmol acetone consumed·min^−1mg^−1 protein
CCO [Ethanol] | – | – | – | – | inhibition by ethanol ([7]; in the presence of 10 mM ethanol): 0%; inhibition by ethanol ([7]; in the presence of 100 mM ethanol): 30%
